We go through ten molecules from patent US20230014445A1, “ALLOSTERIC CHROMENONE INHIBITORS OF PHOSPHOINOSITIDE 3-KINASE (PI3K) FOR THE TREATMENT OF DISEASE” (Petra Pharma Corporation, priority 2021, published 2023).

The structures appear in SMILES notation.

For assay [1], the target named is T1, human full length PIK3KA H1047R mutant (p110α/p85α complex) (Homo sapiens, UniProt P42336, H1047R).
T1 construct: Recombinant, catalytically active human full length PIK3KA Wild-type and H1047R mutant were purchased; 6xHis (N); purchased EMD Millipore Sigma 14-792M
T1 sequence (P42336 whole entry H1047R): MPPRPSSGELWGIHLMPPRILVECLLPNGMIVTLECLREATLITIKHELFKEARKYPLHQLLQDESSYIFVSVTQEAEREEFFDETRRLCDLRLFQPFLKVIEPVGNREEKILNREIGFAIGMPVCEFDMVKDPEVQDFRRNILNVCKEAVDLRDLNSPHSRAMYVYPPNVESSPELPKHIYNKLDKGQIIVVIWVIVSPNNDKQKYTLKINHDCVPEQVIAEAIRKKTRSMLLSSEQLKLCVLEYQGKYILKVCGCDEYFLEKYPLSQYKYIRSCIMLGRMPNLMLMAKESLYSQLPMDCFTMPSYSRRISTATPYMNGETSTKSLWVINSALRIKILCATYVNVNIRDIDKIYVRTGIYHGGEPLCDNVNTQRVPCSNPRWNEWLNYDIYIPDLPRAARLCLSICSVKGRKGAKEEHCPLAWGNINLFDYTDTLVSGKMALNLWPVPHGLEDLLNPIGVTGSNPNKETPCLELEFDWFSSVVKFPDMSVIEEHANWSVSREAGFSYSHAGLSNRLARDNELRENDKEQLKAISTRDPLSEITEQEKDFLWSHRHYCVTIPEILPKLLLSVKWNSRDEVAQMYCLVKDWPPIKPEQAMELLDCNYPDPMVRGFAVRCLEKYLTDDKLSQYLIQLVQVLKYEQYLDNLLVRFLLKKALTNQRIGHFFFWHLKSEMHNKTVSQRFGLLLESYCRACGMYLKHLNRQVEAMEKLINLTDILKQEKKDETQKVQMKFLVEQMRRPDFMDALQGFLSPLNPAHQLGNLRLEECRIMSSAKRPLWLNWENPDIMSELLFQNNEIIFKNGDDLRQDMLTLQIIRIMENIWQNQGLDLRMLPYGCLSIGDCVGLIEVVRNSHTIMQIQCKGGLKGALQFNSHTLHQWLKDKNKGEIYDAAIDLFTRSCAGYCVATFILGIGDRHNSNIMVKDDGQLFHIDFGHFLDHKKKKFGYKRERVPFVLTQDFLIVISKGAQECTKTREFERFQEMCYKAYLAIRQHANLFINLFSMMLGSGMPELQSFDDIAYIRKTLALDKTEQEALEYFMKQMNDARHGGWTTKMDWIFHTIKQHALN
T1 sequence (P27986 whole entry partner): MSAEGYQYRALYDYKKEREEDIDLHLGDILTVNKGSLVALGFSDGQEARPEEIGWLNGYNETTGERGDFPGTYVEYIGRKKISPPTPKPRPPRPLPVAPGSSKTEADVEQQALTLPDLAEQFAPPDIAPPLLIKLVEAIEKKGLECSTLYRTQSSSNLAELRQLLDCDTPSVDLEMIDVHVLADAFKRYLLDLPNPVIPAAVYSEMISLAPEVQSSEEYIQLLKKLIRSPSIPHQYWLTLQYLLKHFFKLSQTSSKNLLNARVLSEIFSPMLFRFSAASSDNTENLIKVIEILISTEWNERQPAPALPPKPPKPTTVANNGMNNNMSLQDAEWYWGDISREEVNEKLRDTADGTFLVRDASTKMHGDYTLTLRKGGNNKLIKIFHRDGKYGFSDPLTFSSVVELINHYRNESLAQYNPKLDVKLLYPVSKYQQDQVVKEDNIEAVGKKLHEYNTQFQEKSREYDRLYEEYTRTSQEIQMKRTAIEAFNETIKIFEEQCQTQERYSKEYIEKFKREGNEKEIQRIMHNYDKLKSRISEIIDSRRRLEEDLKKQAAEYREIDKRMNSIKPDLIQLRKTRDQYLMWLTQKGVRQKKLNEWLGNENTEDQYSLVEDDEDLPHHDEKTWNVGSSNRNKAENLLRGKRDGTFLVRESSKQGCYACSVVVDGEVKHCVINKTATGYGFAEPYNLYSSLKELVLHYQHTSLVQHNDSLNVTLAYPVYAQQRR
The assay is described as follows: PI3K-Alpha Kinase (PIK3CA) biochemical activity, H1047R mutant (ADP-Glo). The settings on record: 20 uM ATP. An excerpt:
(§1) PI3K-Alpha Kinase (PIK3CA) Activity, Wild-Type and H1047R Mutant and Determining IC50 Values for Inhibitors
(§2) Recombinant, catalytically active human full length PIK3KA Wild-type and H1047R mutant were purchased as 1:1 complex of N-terminal 6×his tagged p110α (catalytic) and untagged p85α, (regulatory subunit) from EMD Millipore Sigma (cat. no. 14-602M and 14-792M, respectively). PIP2diC8 (Avanti Polar Lipids Inc., cat. no. 850185) or Soy PI (Avanti Polar Lipids Inc., cat. No. 840044P) was used as lipid substrate. PIP2diC8 or PI lyophilized powder was dissolved in milliQ water to a concentration of 1 mM just before use. 10 mM stock compounds in DMSO were serially diluted 1:3 to generate a 10-point curve and plated using an acoustic liquid handler system (Echo 550 series instrument, Labcyte). A 10× intermediate compound plate (200 uM starting compound concentration and 10% DMSO) was prepared before starting the reaction. A typical reaction mixture (50 uL) comprised 40 mM HEPES buffer, pH 7.4, 25 mM MgCl2, 0.01% v/v triton-X-100, 1% v/v DMSO, 20 mM NaCl, 1-5 nM WT or H1047R PI3K protein, 20 uM ATP, and 50 uM PIP2diC8 or Soy PI. 1% DMSO buffer alone without test compound was employed as MAX control (full activity in the absence of any inhibitor), and no enzyme control was used to determine the level of background Adenosine 5′-diphosphate (ADP) (MIN control). First, Wild-type (WT) and H1047R mutant protein in kinase buffer with all components except ATP were incubated with or without compound at 27° C. for 1 h. After the pre-incubation, the reaction was initiated by the addition of […] (20 uM final concentration). The reaction was allowed to proceed until about 10% conversion of ATP (2 uM ADP) at 27° C. After that time, 5 uL of reaction was mixed with 5 uL of ADP-Kinase Glo Reagent (ADP-Glo Kinase assay kit, Promega cat. no. V9102) supplemented with MgCl2 10 mM to stop the reaction and deplete the remaining ATP for 40 min at room temperature. Then, 10 uL of Kinase Detection Reagent (ADP-Glo Kinase assay kit, Promega cat. no. V9102) was added to simultaneously convert ADP to ATP and allow the newly synthesized ATP to be measured using a luciferase/luciferin reaction. After 30 min at room temperature the light generated was measured using a luminometer (EnVision plate reader, Perkin Elmer). Process data through Genedata-Screener tool. Relative IC50 values are determined using luminescence units by calculating percent inhibition with respect to on-plate “MIN” and “MAX” controls. Data was analyzed using a 4-parameter nonlinear logistic equation (four-parameter logistic concentration-response curve):
(§3) Y=bot+[(top−bot)/1+(x/IC50)slope]
(§4) where Y=% inhibition, X=concentration yielding y % inhibition, Bottom=minimum value of y attained by curve, Top=maximum value of y attained by curve and Slope=steepness of curve at IC50.
(§5) % Inh=[(median Max−x/median Max−median Min)]·100
(§6) IC50: concentration of compound that reduces a given response (ligand binding, enzyme response) by 50%. IC50 relative: concentration giving half the compound's maximum response.
(§7) For IC50 values shown in Table A, “A” means IC50<0.5 μM; “B” means IC50 ranging between 0.5 μM and 1.0 μM; “C” means IC50 ranging between 1 μM and 5 μM; “D” means IC50 ranging between 5 μM and 10 μM; “E” means IC50>10 μM.
A general note: ADP-Glo first removes unused ATP, then detects ADP through luciferase.

The target of assay [2] is T2, human full length PIK3KA Wild-type (p110α/p85α complex) (Homo sapiens, UniProt P42336).
T2 construct: Recombinant, catalytically active human full length PIK3KA Wild-type and H1047R mutant were purchased; 6xHis (N); purchased EMD Millipore Sigma 14-602M
The assay is described as follows: PI3K-Alpha Kinase (PIK3CA) biochemical activity, wild-type (ADP-Glo). The following applies: 20 uM ATP.
Source text: as §1, §2, §3, §4, §5, §6, §7

The IC50 is the midpoint of a concentration-inhibition curve. Read a high IC50 as a need for much substance. `Cc1cc(C(C)Nc2cccc(F)c2C(=O)O)c2oc(-c3cnn(-c4ccc(C#N)cc4)c3)cc(=O)c2c1` (centres unmarked) [Example 101, 2-[1-[2-[1-(4-Cyanophenyl)pyrazol-4-yl]-6-methyl-4-oxo-chromen-8-yl]ethylamino]-6-fluoro-benzoic acid 2,2,2-trifluoroacetic acid]: the IC50 in assay [1] (Soy PI lipid substrate) was below 0.5 µM; in assay [2] (Soy PI lipid substrate), 0.5 to 1 µM.
On to `Cc1cc(C(C)Nc2cccc(F)c2C(=O)O)c2oc(-c3ccccn3)cc(=O)c2c1` (centres unmarked) [Example 100, 2-Fluoro-6-[1-[6-methyl-4-oxo-2-(2-pyridyl)chromen-8-yl]ethylamino]benzoic acid 2,2,2-trifluoroacetic acid], for which the IC50 was below 0.5 µM in assay [1] (Soy PI lipid substrate) and above 10 µM in assay [2] (Soy PI lipid substrate).
For `Cc1cc(C(C)Nc2ccccc2C(=O)O)c2oc(-c3cnn(-c4ccc(C(F)(F)F)cc4)c3)cc(=O)c2c1` (single isomer, unassigned) [Example 87, 2-[1-[6-Methyl-4-oxo-2-[1-[4-(trifluoromethyl)phenyl]pyrazol-4-yl]chromen-8-yl]ethylamino]benzoic acid, Isomer 2,2,2,2-trifluoroacetic acid], the IC50 in assay [1] (Soy PI lipid substrate) is below 0.5 µM; in assay [2] (Soy PI lipid substrate), 5 to 10 µM.
Turning to `Cc1cc(C(C)Nc2ccccc2C(=O)O)c2oc(-c3cnccn3)cc(=O)c2c1` (single isomer, unassigned; isomer 2) [Example 16, 2-[1-(6-Methyl-4-oxo-2-pyrazin-2-yl-chromen-8-yl)ethylamino]benzoic acid, Isomer 2], the IC50 in assay [1] (PIP2diC8 lipid substrate) and in assay [2] (PIP2diC8 lipid substrate) was above 10 µM in each case.
Take `Cc1cc(C(C)Nc2ccccc2C(=O)O)c2oc(-c3cn(-c4ccc(C#N)cc4)nc3C)cc(=O)c2c1` (single isomer, unassigned) [Example 109, 2-[1-[2-[1-(4-Cyanophenyl)-3-methyl-pyrazol-4-yl]-6-methyl-4-oxo-chromen-8-yl]ethylamino]benzoic acid, Isomer 2,2,2,2-trifluoroacetic acid]: the IC50 in assay [1] (Soy PI lipid substrate) was in the range of 0.5 to 1 µM; in assay [2] (Soy PI lipid substrate) it was 5 to 10 µM.
For `Cc1cc(C(C)Nc2ccccc2C(=O)O)c2oc(-c3cnn(-c4cccnc4)c3)cc(=O)c2c1` (centres unmarked) [Example 48, 2-[1-[6-Methyl-4-oxo-2-[1-(3-pyridyl)pyrazol-4-yl]chromen-8-yl]ethylamino]benzoic acid 2,2,2-trifluoroacetic acid] the same measures were below 0.5 µM and 5 to 10 µM.
Take `Cc1cc(C(C)Nc2ccccc2C(=O)O)c2oc(-c3cnc(C#CC(C)(C)O)nc3)cc(=O)c2c1` (single isomer, unassigned) [Example 102, 2-[1-[2-[2-(3-Hydroxy-3-methyl-but-1-ynyl)pyrimidin-5-yl]-6-methyl-4-oxo-chromen-8-yl]ethylamino]benzoic acid, Isomer 2,2,2,2-trifluoroacetic acid]: the figures for the IC50 in assay [1] (Soy PI lipid substrate) and in assay [2] (Soy PI lipid substrate) were 0.5 to 1 µM and 5 to 10 µM, respectively.
With `Cc1cc(C(C)Nc2ccccc2C(=O)O)c2oc(-c3ccc(S(C)(=O)=O)nc3)cc(=O)c2c1` (single isomer, unassigned; isomer 2) [Example 40, 2-[1-[6-Methyl-2-(6-methylsulfonyl-3-pyridyl)-4-oxo-chromen-8-yl]ethylamino]benzoic acid, Isomer 2], the IC50 in assay [1] (Soy PI lipid substrate) was below 0.5 µM; in assay [2] (Soy PI lipid substrate), above 10 µM.
Regarding `Cc1cc(C(C)Nc2ccccc2C(=O)O)c2oc(-c3nnc(-c4ccc(C#N)cc4)o3)cc(=O)c2c1` (single isomer, unassigned; isomer 2) [Example 90, 2-[1-[2-[5-(4-Cyanophenyl)-1,3,4-oxadiazol-2-yl]-6-methyl-4-oxo-chromen-8-yl]ethylamino]benzoic acid, Isomer 2], the half-maximal inhibitory concentration (IC50) in assay [1] (Soy PI lipid substrate) is below 0.5 µM; in assay [2] (Soy PI lipid substrate), above 10 µM.
Turning to `Cc1cc(C(C)Nc2ccccc2C(=O)O)c2oc(-c3ccccn3)c(C(F)(F)F)c(=O)c2c1` (single isomer, unassigned) [Example 67, 2-[1-[6-Methyl-4-oxo-2-(2-pyridyl)-3-(trifluoromethyl)chromen-8-yl]ethylamino]benzoic acid, Isomer 1,2,2,2-trifluoroacetic acid], the half-maximal inhibitory concentration (IC50) was below 0.5 µM in assay [1] (Soy PI lipid substrate) and 1 to 5 µM in assay [2] (Soy PI lipid substrate).
